The record followed here is BindingDB's records for doi:10.1016/s0960-894x(99)00489-8 (Glaxowellcome Medicines Research Centre, 1999).

One may read the IC50 as the concentration at which inhibition is half-maximal. Higher therefore signals weaker potency in that assay.

For assay [1], the target named is Human cytomegalovirus protease (assemblin) (Human herpesvirus 5). The experiment in a line: Inhibitory activity against HCMV protease by HPLC assay.
Assay [2] has the same target. The experiment in a line: Inhibitory activity against HCMV protease by SPA assay.
The target is the same in assay [3]. Put plainly: Inhibitory activity against HCMV protease by HPLC assay. The source holds these as a separate data set.

`O=C1C(OC2CCCCC2)=C(C2CCCCC2)C(=O)c2ccccc21` [2-Cyclohexyl-3-cyclohexyloxy-[1,4]naphthoquinone]: the 50% inhibitory concentration (IC50) in assay [1] stood at 110 µM.

The compound `COC(=O)CC1=C(Cl)C(=O)c2ccccc2C1=O` [(3-Chloro-1,4-dioxo-1,4-dihydro-naphthalen-2-yl)-acetic acid methyl ester] registered an IC50 in assay [1] of 148 µM.

In assay [1], `CC1(C)CC(=O)C(C2=C(Cl)C(=O)c3ccccc3C2=O)C(=O)C1` [2-Chloro-3-(4,4-dimethyl-2,6-dioxo-cyclohexyl)-[1,4]naphthoquinone] yielded a 50% inhibitory concentration (IC50) of 150 µM.

In the case of `CCOC(=O)C(C(C)=O)C1=C(Cl)C(=O)c2ccccc2C1=O` (configuration not stated) [2-(3-Chloro-1,4-dioxo-1,4-dihydro-naphthalen-2-yl)-3-oxo-butyric acid ethyl ester], the IC50 in assay [2] stood at 1.45 µM; in assay [3], 4.8 µM.

Consider `O=C1C(Cl)=C(C2CCCCCC2)C(=O)c2ccccc21` [2-Chloro-3-cycloheptyl-[1,4]naphthoquinone], for which, in assay [1], the IC50 was 67 µM.

Regarding `CC(=O)C(C(C)=O)C1=C(Cl)C(=O)c2ccccc2C1=O` [2-(1-Acetyl-2-oxo-propyl)-3-chloro-[1,4]naphthoquinone], the values for the IC50 in assay [2] and in assay [3] were 0.8 µM and 0.72 µM, respectively.

Consider `CC(=O)C(C(=O)OCc1ccccc1)C1=C(Cl)C(=O)c2ccccc2C1=O` (configuration not stated) [2-(3-Chloro-1,4-dioxo-1,4-dihydro-naphthalen-2-yl)-3-oxo-butyric acid benzyl ester], for which the results for the IC50 in assay [2] and in assay [3] were 0.73 µM and 0.7 µM, respectively.

As for `CC(=O)C(C(=O)OC(C)C)C1=C(Cl)C(=O)c2ccccc2C1=O` (configuration not stated) [2-(3-Chloro-1,4-dioxo-1,4-dihydro-naphthalen-2-yl)-3-oxo-butyric acid isopropyl ester], the IC50 turned out to be 2.68 µM in assay [2] and 9.1 µM in assay [3].
